Experimental findings from publication PMC9405123, “Design, Synthesis and Mechanistic Studies of Novel Isatin-Pyrazole Hydrazone Conjugates as Selective and Potent Bacterial MetAP Inhibitors” (Antibiotics, 2022) are described below.

For one series, the system named is E. faecalis. The experiment in a line: Growth inhibition screening (broth dilution). It is filed as cell-based, Enterococcus faecalis. To be noted: Enterococcus faecalis. As for the experimental part: (§1) In vitro screening of the compounds (PS1–14) was performed to assess the antibacterial activity against three Gram-positive (Staphylococcus aureus, Enterococcus faecalis and Bacillus subtilis,) and three Gram-negative (Pseudomonas aeruginosa, Klebsiella pneumonia and Escherichia coli) bacterial strains using the standard NCCLS broth dilution assay. The study’s standard drugs were ciprofloxacin (CIP) and ampicillin (AMP). Compounds were dissolved in a polar solvent (DMSO) and distributed into a 96-well plate in 200 µL of nutrient broth medium, with a final concentration of the compounds […] in each well. The bacterial cells (about 2.5 × 10^5 cells/mL) were inoculated into each well and incubated at 37 °C overnight. After incubation, the growth was measured by turbidity of the culture at 590 nm by spectrophotometer.
In general terms: Dilution methods test growth across graded concentrations, often in twofold steps.

A further series addresses T1, MtMetAP1c (Mycobacterium tuberculosis, UniProt P9WK19).
T1 construct: made in house
Put plainly: MetAP enzyme inhibition, Morrison Ki (Met-AMC fluorescence). It is filed as biochemical, M. tuberculosis. To be noted: Morrison Ki method. As for the experimental part:
MetAP appears to serve a vital role in the co- or post-translational modification of proteins, making it essential for bacterial cell metabolism and survival. In this study, all enzymes, which were used for this study, including MtMetAP1c (M. tuberculosis), EfMetAP1a (E. faecalis), SpMetAP1a (S. pneumoniae) and HsMetAP1b (H. sapiens) enzymes, were expressed and purified in our lab as previously reported. All compounds prepared 10 mM stocks in DMSO and were used for enzyme inhibition studies. The concentration of each enzyme is adjusted such that they have similar reaction rates (HsMetAp1b, 1 µM; SpMetAP1a, 5 µM; EfMetAP1a, 1 µM; MtMetAP1c, 1 µM;) as reported earlier. All assays were performed in […] reaction containing 50 mM HEPES (pH 7.5 for SpMetAP1a and HsMetAP1b; 8.0 for EfMetAP1a, MtMetAP1c, […]), 150 mM NaCl, and CoCl2 (three molar equivalents of corresponding enzymes). The reaction was started by adding 50 μM L-Methionine 7-amido-4-methyl coumarin (Met-AMC) and continuously monitoring the fluorescence of released 7-amino-4-methyl coumarin (AMC) (380 nm excitation and 460 nm emission) in a microplate multimode reader (TECAN, Austria). The maximum percentage of inhibition against enzymes is calculated at […] compound concentration. […] The Ki values were determined according to the Morrison method using three different concentrations of substrates and ten different concentrations of the inhibitor. All experiments were performed in triplicate. GraphPad Prism version 8.0.0 (San Diego, CA, USA) was used to determine all the kinetic parameters.

The next series deals with P. aeruginosa. The experiment in a line: Growth inhibition screening (broth dilution). Type of series: cell-based, Pseudomonas aeruginosa. The note with it: Pseudomonas aeruginosa. As to the method:
as §1

In a further series the target is EfMetAP1a (Enterococcus faecalis, UniProt Q832M5). Put plainly: MetAP enzyme inhibition, Morrison Ki (Met-AMC fluorescence). To be noted: Morrison Ki method. It is filed as biochemical.
Another series has as its system E. coli. The experiment in a line: Growth inhibition screening (broth dilution). Type of series: cell-based, Escherichia coli. The note with it: Escherichia coli. As to the method: as §1
A further series relates to B. subtilis. The experiment in a line: Growth inhibition screening (broth dilution). Type of series: cell-based, Bacillus subtilis. The note with it: Bacillus subtilis. As for the experimental part:
as §1

A further series concerns K. pneumoniae. The experiment in a line: Growth inhibition screening (broth dilution). To be noted: Klebsiella pneumoniae. Type of series: cell-based, Klebsiella pneumonia. As to the method:
as §1

The subject of a further series is S. aureus. Put plainly: Growth inhibition screening (broth dilution). To be noted: Staphylococcus aureus. Type of series: cell-based, Staphylococcus aureus. As to the method: as §1
The target in the next series is SpMetAP1a (Streptococcus pneumoniae, UniProt Q8DPV1). The experiment in a line: MetAP enzyme inhibition, Morrison Ki (Met-AMC fluorescence). Type of series: biochemical. To be noted: Morrison Ki method.

Structures are written as SMILES.

T1 sequence (P9WK19 whole entry): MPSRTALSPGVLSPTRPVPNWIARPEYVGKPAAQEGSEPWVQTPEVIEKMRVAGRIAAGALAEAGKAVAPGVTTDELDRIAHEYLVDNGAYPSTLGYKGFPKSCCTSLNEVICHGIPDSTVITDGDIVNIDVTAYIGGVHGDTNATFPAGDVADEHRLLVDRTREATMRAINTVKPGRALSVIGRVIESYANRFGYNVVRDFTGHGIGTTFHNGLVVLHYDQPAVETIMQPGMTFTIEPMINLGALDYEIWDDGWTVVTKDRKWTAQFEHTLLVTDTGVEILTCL
Sequence of SpMetAP1a (Q8DPV1 entry or part of it): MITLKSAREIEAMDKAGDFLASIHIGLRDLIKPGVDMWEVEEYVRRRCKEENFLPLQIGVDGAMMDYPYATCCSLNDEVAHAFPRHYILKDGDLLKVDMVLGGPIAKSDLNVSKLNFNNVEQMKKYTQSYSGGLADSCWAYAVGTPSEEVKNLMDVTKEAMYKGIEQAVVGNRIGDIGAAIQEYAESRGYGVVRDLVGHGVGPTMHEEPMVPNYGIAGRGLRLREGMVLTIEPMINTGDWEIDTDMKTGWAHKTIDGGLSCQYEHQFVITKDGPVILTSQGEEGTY
Sequence of EfMetAP1a (Q832M5 entry or part of it): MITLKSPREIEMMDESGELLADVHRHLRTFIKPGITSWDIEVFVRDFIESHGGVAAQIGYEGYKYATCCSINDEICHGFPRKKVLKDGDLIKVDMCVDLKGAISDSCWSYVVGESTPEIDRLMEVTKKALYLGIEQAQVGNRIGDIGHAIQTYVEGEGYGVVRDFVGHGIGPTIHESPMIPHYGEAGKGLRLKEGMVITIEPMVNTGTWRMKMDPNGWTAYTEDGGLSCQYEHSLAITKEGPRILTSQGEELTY

`O=C1Nc2ccccc2/C1=N\NC(=O)c1cc(-c2cccc(Br)c2)n[nH]1` [PS1, (E)-3-(3-Bromophenyl)-N′-(2-Oxoindolin-3-YLIDENE)-1H-Pyrazole-5-Carbohydrazide] gave a melting point of 218 to 221 °C. In the series with E. faecalis, the inhibition at 250 µg/mL was 12%. The Ki at MtMetAP1c was found to be 2.3 ± 0.27 µM. Further, the inhibition at 250 µg/mL in the series on P. aeruginosa is 4%. At EfMetAP1a, this compound displayed a Ki of 2.65 ± 0.34 µM. The compound also displayed an inhibition at 250 µg/mL with E. coli of 40%. The compound also gave an inhibition at 250 µg/mL with B. subtilis of 76%. In addition, at 250 µg/mL the inhibition with K. pneumoniae was 74%. This compound also had an inhibition at 250 µg/mL in the series on S. aureus of 73%. For the same compound, the Ki on SpMetAP1a came out at 4.48 ± 0.12 µM.
Turning to `Cc1ccc2c(c1)/C(=N\NC(=O)c1cc(-c3cccc(Br)c3)n[nH]1)C(=O)N2` [PS2, (E)-3-(3-Bromophenyl)-N′-(5-Methyl-2-Oxoindolin-3-Ylidene)-1H-Pyrazole-5-Carbohydrazide], the melting point is 209 to 213 °C. This compound displayed an inhibition at 250 µg/mL in the series with E. faecalis of 10%. In addition, the Ki on MtMetAP1c stood at 4.37 ± 0.14 µM. In the series on P. aeruginosa, this compound registered an inhibition at 250 µg/mL of 87%. The compound further came in with an inhibition at 250 µg/mL in the series on E. coli of 86%. For the same compound, 250 µg/mL produced 80% inhibition in the series with B. subtilis. This compound gave an inhibition at 250 µg/mL with K. pneumoniae of 90%. The compound further returned an inhibition at 250 µg/mL in the series with S. aureus of 66%. In addition, the Ki at SpMetAP1a was found to be 2.98 ± 0.18 µM.
In turn, `Cc1cc(C)c2c(c1)/C(=N\NC(=O)c1cc(-c3cccc(Br)c3)n[nH]1)C(=O)N2` [PS4, (E)-3-(3-Bromophenyl)-N′-(5,7-Dimethyl-2-Oxoindolin-3-Ylidene)-1H-Pyrazole-5-Carbohydrazide] gave a melting point of 257 to 260 °C. Further, at 250 µg/mL the inhibition in the series on E. faecalis was 47%. The compound further displayed an inhibition at 250 µg/mL in the series on P. aeruginosa of 90%. Moreover, in the series on E. coli, 250 µg/mL produced 80% inhibition. For the same compound, 250 µg/mL produced 44% inhibition with B. subtilis. The compound also showed an inhibition at 250 µg/mL in the series with K. pneumoniae of 97%. The compound also yielded an inhibition at 250 µg/mL in the series with S. aureus of 81%.
In turn, `O=C1Nc2ccc(Br)cc2/C1=N\NC(=O)c1cc(-c2cccc(Br)c2)n[nH]1` [PS5, (E)-N′-(5-Bromo-2-Oxoindolin-3-Ylidene)-3-(3-Bromophenyl)-1H-Pyrazole-5-Carbohydrazide] yielded a melting point of 230 to 233 °C. The same compound had an inhibition at 250 µg/mL with E. faecalis of 86%. Moreover, the Ki at MtMetAP1c was 3.14 ± 0.41 µM. In the series on P. aeruginosa, this compound registered an inhibition at 250 µg/mL of 100%. Moreover, the inhibition at 250 µg/mL in the series on E. coli is 9%. The same compound displayed an inhibition at 250 µg/mL in the series on B. subtilis of 34%. In the series on K. pneumoniae, this compound gave an inhibition at 250 µg/mL of 100%. In addition, in the series on S. aureus, the inhibition at 250 µg/mL worked out at 100%.
Turning to `O=C1Nc2cc(F)ccc2/C1=N\NC(=O)c1cc(-c2cccc(Br)c2)n[nH]1` [PS7, (E)-3-(3-Bromophenyl)-N′-(6-Fluoro-2-Oxoindolin-3-Ylidene)-1H-Pyrazole-5-Carbohydrazide], the melting point lay within 228 to 230 °C. Also, the inhibition at 250 µg/mL in the series with E. faecalis was 99%. In addition, in the series on P. aeruginosa, the inhibition at 250 µg/mL came out at 65%. This compound returned an inhibition at 250 µg/mL in the series with E. coli of 3%. The same compound yielded an inhibition at 250 µg/mL with B. subtilis of 100%. This compound returned an inhibition at 250 µg/mL with K. pneumoniae of 49%. Besides, in the series with S. aureus, the inhibition at 250 µg/mL was 10%.
`O=C1Nc2ccc(Cl)cc2/C1=N\NC(=O)c1cc(-c2cccc(Br)c2)n[nH]1` [PS8, (E)-3-(3-Bromophenyl)-N′-(5-Chloro-2-Oxoindolin-3-Ylidene)-1H-Pyrazole-5-Carbohydrazide] registered a melting point of 217 to 220 °C. In addition, 250 µg/mL produced 13% inhibition in the series with E. faecalis. Also, in the series with P. aeruginosa, the inhibition at 250 µg/mL came to 100%. Besides, the inhibition at 250 µg/mL in the series with E. coli is 84%. This compound came in with an inhibition at 250 µg/mL with B. subtilis of 93%. The same compound displayed an inhibition at 250 µg/mL in the series on K. pneumoniae of 52%. This compound also gave an inhibition at 250 µg/mL with S. aureus of 3%.
`O=C1Nc2c(cccc2[N+](=O)[O-])/C1=N\NC(=O)c1cc(-c2cccc(Br)c2)n[nH]1` [PS10, (E)-3-(3-Bromophenyl)-N′-(7-Nitro-2-Oxoindolin-3-Ylidene)-1H-Pyrazole-5-Carbohydrazide]: the melting point was 215 to 218 °C. For the same compound, testing at 250 µg/mL with E. faecalis gave an inhibition of 85%. This compound also showed an inhibition at 250 µg/mL with P. aeruginosa of 100%. The compound further gave an inhibition at 250 µg/mL in the series with E. coli of 88%. In the series on B. subtilis, this compound yielded an inhibition at 250 µg/mL of 56%. For the same compound, the inhibition at 250 µg/mL with K. pneumoniae worked out at 52%. For the same compound, in the series on S. aureus, the inhibition at 250 µg/mL was determined as 82%.
Compound `COc1ccc2c(c1)NC(=O)/C2=N/NC(=O)c1cc(-c2cccc(Br)c2)n[nH]1` [PS12, (E)-3-(3-Bromophenyl)-N′-(6-Methoxy-2-Oxoindolin-3-Ylidene)-1H-Pyrazole-5-Carbohydrazide] registered a melting point of 228 to 230 °C. Besides, the inhibition at 250 µg/mL in the series on E. faecalis came to 65%. Moreover, the Ki on MtMetAP1c worked out at 0.61 ± 0.03 µM. The inhibition at 250 µg/mL with P. aeruginosa stood at 23%. The compound also yielded a Ki at EfMetAP1a of 3.25 ± 0.14 µM. Moreover, testing at 250 µg/mL with E. coli gave an inhibition of 74%. The compound also gave an inhibition at 250 µg/mL in the series on B. subtilis of 85%. The inhibition at 250 µg/mL in the series on K. pneumoniae stood at 6%. Also, the inhibition at 250 µg/mL in the series on S. aureus was found to be 100%.
Compound `O=C1Nc2c(Cl)cccc2/C1=N\NC(=O)c1cc(-c2cccc(Br)c2)n[nH]1` [PS13, (E)-3-(3-Bromophenyl)-N′-(7-Chloro-2-Oxoindolin-3-Ylidene)-1H-Pyrazole-5-Carbohydrazide] registered a melting point of 205 to 208 °C. The compound further yielded an inhibition at 250 µg/mL with E. faecalis of 36%. In the series on P. aeruginosa, the inhibition at 250 µg/mL came to 95%. This compound also had an inhibition at 250 µg/mL in the series on E. coli of 20%. Moreover, the inhibition at 250 µg/mL with B. subtilis was 33%. In the series on K. pneumoniae, this compound showed an inhibition at 250 µg/mL of 74%. Further, testing at 250 µg/mL with S. aureus gave an inhibition of 92%.
For the compound `O=C1Nc2cc([N+](=O)[O-])ccc2/C1=N\NC(=O)c1cc(-c2cccc(Br)c2)n[nH]1` [PS14, (E)-3-(3-Bromophenyl)-N′-(6-Nitro-2-Oxoindolin-3-Ylidene)-1H-Pyrazole-5-Carbohydrazide], the melting point lay within 225 to 228 °C. For the same compound, the inhibition at 250 µg/mL in the series with E. faecalis came out at 9%. The same compound had a Ki at MtMetAP1c of 1.27 µM. In the series with P. aeruginosa, this compound showed an inhibition at 250 µg/mL of 3%. The inhibition at 250 µg/mL in the series with E. coli turned out to be 34%. In the series on B. subtilis, this compound gave an inhibition at 250 µg/mL of 86%. The same compound gave an inhibition at 250 µg/mL in the series on K. pneumoniae of 17%. Further, the inhibition at 250 µg/mL with S. aureus turned out to be 33%. Further, on SpMetAP1a, the Ki was 0.5 ± 0.03 µM.

In general, inhibition refers to the drop in the measured response relative to a control, in per cent. Low readings indicate little suppression, high ones strong suppression. For orientation: Ki means the equilibrium dissociation constant of an inhibitor or competing ligand from its target. The term melting point denotes the temperature of the solid-liquid transition.
